{
  "source": "patent US6461833B1",
  "about": "“Method to detect bacteria” (priority 1995, dated 2002)",
  "key": {"Mycobacterium smegmatis": {"system": "Mycobacterium smegmatis", "format": "cell-based", "details": "for number of plaques observed: 72 hours incubation with drug, M. smegmatis"}, "BCG": {"system": "BCG", "format": "cell-based, M. tuberculosis", "details": "for number of plaques observed: 72 hours incubation with drug, M. tuberculosis"}, "[1]": {"details": "Isoniazid concentration 0.1 μg/ml"}, "[2]": {"details": "Isoniazid concentration 1.0 μg/ml"}, "[3]": {"details": "Isoniazid concentration 10 μg/ml"}, "[4]": {"details": "Rifampicin concentration 10 μg/ml"}, "[5]": {"details": "Rifampicin concentration 50 μg/ml"}, "[6]": {"details": "Rifampicin concentration 100 μg/ml"}},
  "note": "Like-named read-outs stand apart in the source and are kept apart here.",
  "data": [
    {"smiles": "NNC(=O)c1ccncc1", "note": "[Isoniazid, isoniazid]", "values": [
      {"measurement": "number of plaques observed", "setting": "Mycobacterium smegmatis; [1]", "result": "++"},
      {"measurement": "number of plaques observed", "setting": "Mycobacterium smegmatis; [2]", "result": "++"},
      {"measurement": "number of plaques observed", "setting": "Mycobacterium smegmatis; [3]", "result": "+"},
      {"measurement": "effect on cells judged from numbers of plaques", "setting": "Mycobacterium smegmatis; isoniazid, all concentrations, only a slight reduction at the highest concentration", "result": "mostly unaffected"},
      {"measurement": "number of plaques observed", "setting": "BCG; [1]", "result": 122},
      {"measurement": "number of plaques observed", "setting": "BCG; [2]", "result": 40},
      {"measurement": "number of plaques observed", "setting": "BCG; [3]", "result": 2},
      {"measurement": "change in numbers of plaques", "setting": "BCG; higher concentrations of isoniazid", "result": "marked reduction in the numbers of plaques"},
      {"measurement": "effect on cells judged from number of plaques versus no drug controls", "setting": "BCG; lowest concentration of isoniazid", "result": "unaffected"}
    ]},
    {"smiles": "CO[C@H]1/C=C/O[C@@]2(C)Oc3c(C)c(O)c4c(O)c(c(/C=N/N5CCN(C)CC5)c(O)c4c3C2=O)NC(=O)/C(C)=C\\C=C\\[C@H](C)[C@H](O)[C@@H](C)[C@@H](O)[C@@H](C)[C@H](OC(C)=O)[C@@H]1C", "note": "[Rifampicin, rifampicin]", "values": [
      {"measurement": "number of plaques observed", "setting": "Mycobacterium smegmatis; [4]", "result": "++"},
      {"measurement": "number of plaques observed", "setting": "Mycobacterium smegmatis; [5]", "result": 50},
      {"measurement": "number of plaques observed", "setting": "Mycobacterium smegmatis; [6]", "result": 8},
      {"measurement": "number of plaques observed", "setting": "BCG; [4]", "result": 4},
      {"measurement": "number of plaques observed", "setting": "BCG; [5]", "result": 4},
      {"measurement": "number of plaques observed", "setting": "BCG; [6]", "result": 10}
    ]}
  ]
}
